Patent publication US20050043378A1, “LTA4H modulators” (priority 2003, published 2005)

Target: T1, recombinant human LTA4 hydrolase (rhLTA4H) (Homo sapiens, UniProt P09960)
T1 construct: made in house; host or cells: Spodoptera frugiperda (Sf-9) cells, baculovirus (pFastBac1)
T1 sequence (P09960 1-611): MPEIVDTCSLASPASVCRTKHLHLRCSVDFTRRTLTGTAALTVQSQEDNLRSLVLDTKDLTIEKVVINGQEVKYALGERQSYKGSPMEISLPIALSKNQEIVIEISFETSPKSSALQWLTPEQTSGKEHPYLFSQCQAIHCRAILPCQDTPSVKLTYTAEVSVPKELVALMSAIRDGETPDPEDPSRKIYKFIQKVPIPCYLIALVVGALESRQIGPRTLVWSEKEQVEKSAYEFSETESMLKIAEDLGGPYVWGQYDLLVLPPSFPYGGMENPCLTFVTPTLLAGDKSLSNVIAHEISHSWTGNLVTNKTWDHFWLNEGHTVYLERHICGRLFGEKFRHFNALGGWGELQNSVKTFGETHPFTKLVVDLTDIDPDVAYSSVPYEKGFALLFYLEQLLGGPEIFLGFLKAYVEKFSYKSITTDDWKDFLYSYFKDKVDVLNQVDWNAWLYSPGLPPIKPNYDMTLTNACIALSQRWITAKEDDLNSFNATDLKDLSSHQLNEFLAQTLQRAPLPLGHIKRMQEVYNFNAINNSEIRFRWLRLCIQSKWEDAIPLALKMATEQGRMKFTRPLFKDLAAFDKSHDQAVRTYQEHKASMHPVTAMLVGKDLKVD
Assay: Recombinant human LTA4 hydrolase assay for LTA4 hydrolase inhibitor activity;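 note: enzyme expressed in Sf-9 insect cells, compound preincubated 10 min with enzyme, 10 min reaction at room temperature, uninhibited reaction as positive control, enzyme-free blank as negative control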
Format: biochemical
Settings: LTA4 substrate, LTB4 by immunoassay, average of one to three determinations

Row | IC50 [nM] | SMILES
1 | 64 | c1ccc(Cn2nnnc2C2CCN(CCOc3ccc(Oc4nc5ccccc5s4)cc3)CC2)cc1 [Example 143, 2-(4-{2-[4-(1-Benzyl-1H-tetrazol-5-yl)-piperidin-1-yl]-ethoxy}-phenoxy)-benzothiazole]
2 | 39 | CCOC(=O)C1CCN(CCOc2ccc(Oc3nc4ccccc4[nH]3)cc2)CC1 [Example 485, 1-{2-[4-(1H-Benzoimidazol-2-yloxy)-phenoxy]-ethyl}-piperidine-4-carboxylic acid ethyl ester]
3 | 9 | O=C(O)CN1CCN(CCOc2ccc(Oc3nc4ccccc4s3)cc2)CC1 [Example 163, (4-{2-[4-(Benzothiazol-2-yloxy)-phenoxy]-ethyl}-piperazin-1-yl)-acetic acid]
4 | 17 | NC(=O)C1CCCN(CCc2ccc(Oc3nc4ccccc4s3)cc2)C1 (centres unmarked) [Example 31, 1-{2-[4-(Benzothiazol-2-yloxy)-phenyl]-ethyl}-piperidine-3-carboxylic acid amide]
5 | 4 | O=C1NCCC12CCN(CCOc1ccc(Oc3nc4ccccc4s3)cc1)CC2 [Example 25, 8-{2-[4-(Benzothiazol-2-yloxy)-phenoxy]-ethyl}-2,8-diaza-spiro[4.5]decan-1-one]
6 | 100 | CCN(CC)CCOc1ccc(Oc2nc3ccc(Cl)cc3s2)cc1 [Example 12, {2-[4-(6-Chloro-benzothiazol-2-yloxy)-phenoxy]-ethyl}-diethyl-amine]
7 | 58 | O=C(C1CCN(CCOc2ccc(Oc3nc4ccccc4s3)cc2)CC1)N1CCN(CCO)CC1 [Example 195, (1-{2-[4-(Benzothiazol-2-yloxy)-phenoxy]-ethyl}-piperidin-4-yl)-[4-(2-hydroxy-ethyl)-piperazin-1-yl]-methanone]
8 | 2 | c1ccc2oc(Oc3ccc(CN4CCCCC4)cc3)nc2c1 [Example 271, 2-(4-Piperidin-1-ylmethyl-phenoxy)-benzooxazole]
9 | 1 | O=C(O)CC1CCCN(CCc2ccc(Oc3nc4ccccc4s3)cc2)C1 (centres unmarked) [Example 157, (1-{2-[4-(Benzothiazol-2-yloxy)-phenyl]-ethyl}-piperidin-3-yl)-acetic acid]
10 | 7 | NC(=S)NC1CCN(Cc2ccc(Oc3nc4ccccc4s3)cc2)CC1 [Example 479, {1-[4-(Benzothiazol-2-yloxy)-benzyl]-piperidin-4-yl}-thiourea]
11 | 4 | c1ccc2sc(Oc3ccc(CCN4CCC(c5nnn[nH]5)CC4)cc3)nc2c1 [Example 262, 2-(4-{2-[4-(1H-Tetrazol-5-yl)-piperidin-1-yl]-ethyl}-phenoxy)-benzothiazole]
12 | 28 | CCN(CCO)Cc1ccc(Oc2nc3ccccc3s2)cc1 [Example 287, 2-{[4-(Benzothiazol-2-yloxy)-benzyl]-ethyl-amino}-ethanol]
13 | 25 | O=C(O)[C@@H]1CCCC[C@H]1NCCc1ccc(Oc2nc3ccccc3s2)cc1 [Example 225, (1 R,2R)-2-{2-[4-(Benzothiazol-2-yloxy)-phenyl]-ethylamino}-cyclohexanecarboxylic acid]
14 | 18 | O=C(O)[C@@H]1CCCN(CCc2ccc(Oc3nc4ccccc4s3)cc2)C1 [Example 183, (R)-1-{2-[4-(Benzothiazol-2-yloxy)-phenyl]-ethyl}-piperidine-3-carboxylic acid]
15 | 4 | COC(=O)NC1CCN(Cc2ccc(Oc3nc4ccccc4s3)cc2)CC1 [Example 363, {1-[4-(Benzothiazol-2-yloxy)-benzyl]-piperidin-4-yl}-carbamic acid methyl ester]
16 | 37 | Oc1ccc(N2CCN(CCOc3ccc(Oc4nc5ccccc5s4)cc3)CC2)cc1 [Example 167, 4-(4-{2-[4-(Benzothiazol-2-yloxy)-phenoxy]-ethyl}-piperazin-1-yl)-phenol]
17 | 33 | NC(=O)C1CCN(CCOc2ccc(Cc3nc4ccccc4s3)cc2)CC1 [Example 147, 1-[2-(4-Benzothiazol-2-ylmethyl-phenoxy)-ethyl]-piperidine-4-carboxylic acid amide]
18 | 39 | O=C(O)CN1CCN(Cc2ccc(Oc3nc4ccccc4s3)cc2)CC1 [Example 366, {4-[4-(Benzothiazol-2-yloxy)-benzyl]-piperazin-1-yl}-acetic acid]
19 | 1 | CCCN(CCc1ccc(Oc2nc3ccccc3o2)cc1)CC1CC1 [Example 92, {2-[4-(Benzooxazol-2-yloxy)-phenyl]-ethyl}-cyclopropylmethyl-propyl-amine]
20 | 14 | OC1CCN(CCCc2ccc(Oc3nc4ccccc4o3)cc2)CC1 [Example 36, 1-{3-[4-(Benzooxazol-2-yloxy)-phenyl]-propyl}-piperidin-4-ol]
21 | 16 | c1ccc2sc(Oc3ccc(OCCN4CCC(c5nnn[nH]5)CC4)cc3)nc2c1 [Example 270, 2-(4-{2-[4-(1H-Tetrazol-5-yl)-piperidin-1-yl]-ethoxy}-phenoxy)-benzothiazole]
22 | 6 | CCN(CC)Cc1ccc(Oc2nc3ccccc3s2)cc1 [Example 294, [4-(Benzothiazol-2-yloxy)-benzyl]-diethyl-amine]
23 | 3 | O=C(O)CCN(CCc1ccc(Oc2nc3ccccc3s2)cc1)Cc1ccccc1 [Example 192, 3-({2-[4-(Benzothiazol-2-yloxy)-phenyl]-ethyl}-benzyl-amino)-propionic acid]
24 | 4 | O=C(O)CCC1CCN(CCc2ccc(Oc3nc4ccccc4s3)cc2)CC1 [Example 202, 3-(1-{2-[4-(Benzothiazol-2-yloxy)-phenyl]-ethyl}-piperidin-4-yl)-propionic acid]
25 | 23 | c1ccc2sc(Oc3ccc(OCCN4CCC(N5CCCCC5)CC4)cc3)nc2c1 [Example 80, 1′-{2-[4-(Benzothiazol-2-yloxy)-phenoxy]-ethyl}-[1,4′]bipiperidine]
26 | 1 | CN(C1CCN(Cc2ccc(Oc3nc4ccccc4s3)cc2)CC1)S(C)(=O)=O [Example 255, N-{1-[4-(Benzothiazol-2-yloxy)-benzyl]-piperidin-4-yl}-N-methyl-methanesulfonamide]
27 | 18 | NC(=O)CCN(CCc1ccc(Oc2nc3ccccc3s2)cc1)C1CC1 [Example 214, 3-({2-[4-(Benzothiazol-2-yloxy)-phenyl]-ethyl}-cyclopropyl-amino)-propionamide]
28 | 112 | OCC1CCCN(CCOc2ccc(Oc3nc4ccccc4s3)cc2)C1 (centres unmarked) [Example 265, (1-{2-[4-(Benzothiazol-2-yloxy)-phenoxy]-ethyl}-piperidin-3-yl)-methanol]
29 | 3 | O=C(Cc1ccccc1)NC1CCN(CCOc2ccc(Oc3nc4ccccc4o3)cc2)CC1 [Example 78, N-(1-{2-[4-(Benzooxazol-2-yloxy)-phenoxy]-ethyl}-piperidin-4-yl)-2-phenyl-acetamide]
30 | 12 | CC(C)(C)OC(=O)N1CCC(c2nnnn2CCOc2ccc(Oc3nc4ccccc4s3)cc2)CC1 [Example 176, 4-(1-{2-[4-(Benzothiazol-2-yloxy)-phenoxy]-ethyl}-1H-tetrazol-5-yl)-piperidine-1-carboxylic acid tert-butyl ester]

Row | SMILES | IC50 [nM]
31 | OC1(c2ccccc2)CCN(CCOc2ccc(Oc3nc4ccccc4[nH]3)cc2)CC1 [Example 37, 1-{2-[4-(1H-Benzoimidazol-2-yloxy)-phenoxy]-ethyl}-4-phenyl-piperidin-4-ol] | 10
32 | OC1(c2ccc(Cl)cc2)CCN(CCOc2ccc(Oc3nc4ccccc4o3)cc2)CC1 [Example 59, 1-{2-[4-(Benzooxazol-2-yloxy)-phenoxy]-ethyl}-4-(4-chloro-phenyl)-piperidin-4-ol] | 5
